The record followed here is US12704520B2, “Melanogenesis detection method using FAM86A” (Research & Business Foundation Sungkyunkwan University, priority 2019, dated 2026).

The test system of data set [1] is B16F10 cells. Briefly: Melanogenesis induced by α-MSH (melanin content assay). It is filed as cell-based, mouse. Conditions: α-MSH 100 nM, 48 hours.
In data set [2] the test system is protein FAM86A. As to the kind of experiment: Western blotting of protein FAM86A after α-MSH treatment. Format: cell-based, mouse. Conditions: B16F10 cells, α-MSH 100 nM, 48 hours. How it is done:
The B16F10 cells cultured in Example 1 were seeded in 6-well plates at a density of 5×10^4 cells per well, grown for 24 hours, and then treated with α-MSH at 100 nM. The cells were incubated in an incubator under conditions of 37° C. and 5% CO2 for 48 hours, and washed with PBS twice. Subsequently, PBS was completely removed, and then 200 μL of RIPA buffer, which is a tissue lysis and staining reagent, was added to each plate, followed by harvesting cells with a scraper. Afterward, a BCA assay was conducted to quantify proteins, and electrophoresis was performed using 10% SDS-PAGE. The protein in the resulting SDS-PAGE gel was transferred onto a PVDF membrane, and the resulting PVDF membrane onto which the protein transfer had been completed was blocked in TBS-T (in 100 mM NaCl, 10 mM Tris, 0.1% (v/v) Tween-20, pH 7.4 (PBST) containing 3% BSA) at room temperature. After washing three times with TBS-T for 10 minutes, a primary antibody in 3% BSA dissolved in TBS-T was treated for 1 hour, and then sufficiently washed with TBS-T. In addition, a secondary antibody for 1 hour, and washed three times with PBS-T for 10 minutes each. Subsequently, the amount and location of a specific protein were confirmed using an ECL detection system. […]
(In general: In western blotting, separated proteins are transferred to a membrane and probed.)

For data set [3], the system named is tyrosinase, TYRP-1, TYRP-2, MITF and FAM86A genes. Briefly: Real-time PCR of melanogenesis-associated genes and FAM86A after α-MSH treatment. It is filed as cell-based, mouse. Conditions: B16F10 cells, α-MSH 100 nM, 48 hours. How it is done:
The B16F10 cells cultured in Example 1 were seeded in 6-well plates at a density of 5×10^4 cells per well, grown for 24 hours, and then treated with α-MSH at 100 nM. The cells were incubated in an incubator under conditions of 37° C. and 5% CO2 for 48 hours. After 48 hours of incubation, the medium was completely removed, the cells were decomposed with TRIzol and neutralized using BCP. The neutralized liquid was treated with isopropanol to precipitate mRNA. Subsequently, only the precipitated mRNA was collected using a centrifuge, and used for the experiment. Intracellular mRNA was synthesized into cDNA using a cDNA kit, and the expression levels of tyrosinase, TYRP-1, TYRP-2, MITF and FAM86A genes, which are important for melanogenesis, were determined by PCR.
For orientation: Real-time PCR tracks product formation cycle by cycle.

The subject of data set [4] is FAM86A (NM_201400.4). As to the kind of experiment: shRNA mean knockdown level of FAM86A (Table 1). Format: cell-based. Conditions: Homo sapiens FAM86A, pLKO.1 vector.
The test system of data set [5] is FAM86 (NM_027446.2). As to the kind of experiment: shRNA mean knockdown level of FAM86 (Table 1). Format: cell-based. Conditions: Mus musculus FAM86, pLKO.1 vector.

With “Ac-Ser-Tyr-Ser-Met-Glu-His-Phe-Arg-Trp-Gly-Lys-Pro-Val-NH2 [α-MSH]”, the melanogenesis entry in data set [1] is given as “increased”. Besides, in data set [2], the “expression level of the protein FAM86A” value is listed as “decreases”. In addition, in data set [3], the “expression level of FAM86A gene” value was “decreased”, the “expression level of MITF gene” value is on record as “significantly increased”, the “expression level of TYRP-1 gene” value is “significantly increased” and the “expression level of TYRP-2 gene” value was “significantly increased”. The “expression level of tyrosinase gene” value in data set [3] is listed as “significantly increased”.

Regarding “SEQ ID NO: 11: FAM86A shRNA (Homo sapiens, NM_201400.4), pLKO.1 vector, target sequence SEQ ID NO: 21 (DNA CCGGGCAGAAACTGTTTCCCTACGACTCGAGTCGTAGGGAAACAGTTTCTGCTTTTTG)”, in data set [4], the “Mean Knock down level” value is given as 0.93.

As to “SEQ ID NO: 12: FAM86A shRNA (Homo sapiens, NM_201400.4), pLKO.1 vector, target sequence SEQ ID NO: 22 (DNA CCGGCGAGGGAATGTCCTTCTCAATCTCGAGATTGAGAAGGACATTCCCTCGTTTTTG)”, the “Mean Knock down level” value in data set [4] is 0.84.

Regarding “SEQ ID NO: 13: FAM86A shRNA (Homo sapiens, NM_201400.4), pLKO.1 vector, target sequence SEQ ID NO: 23 (DNA CCGGGATGTTGTCATTGCAGCAGATCTCGAGATCTGCTGCAATGACAACATCTTTTTG)”, in data set [4], the “Mean Knock down level” value is 0.79.

For the substance “SEQ ID NO: 14: FAM86A shRNA (Homo sapiens, NM_201400.4), pLKO.1 vector, target sequence SEQ ID NO: 24 (DNA CCGGGCCAGCAGTTCTGGTTCTTAACTCGAGTTAAGAACCAGAACTGCTGGCTTTTTG)”, the “Mean Knock down level” value in data set [4] was 0.77.

For the substance “SEQ ID NO: 15: FAM86A shRNA (Homo sapiens, NM_201400.4), pLKO.1 vector, target sequence SEQ ID NO: 25 (DNA CCGGGCAGACATCACTGCCAAGTTACTCGAGTAACTTGGCAGTGATGTCTGCTTTTTG)”, the “Mean Knock down level” value in data set [4] is listed as 0.6.

On to “SEQ ID NO: 16: FAM86 shRNA (Mus musculus, NM_027446.2), pLKO.1 vector, target sequence SEQ ID NO: 26 (DNA CCGGGAGCATTCAGCCATCGTAATCCTCGAGGATTACGATGGCTGAATGCTCTTTTTG)”, for which the “Mean Knock down level” value in data set [5] was found to be 0.56.
